EC30 data for 20 molecules are collected here from patent US10758534B2 (Vertex Pharmaceuticals Incorporated, priority 2014, dated 2020).

For this experiment, the target named is T1, F508del (Homo sapiens, UniProt P13569, DEL508-508).
T1 construct: expressed in transfected cells
The experiment is described as follows: Protocol 1: membrane potential optical assay (FLIPR III, voltage sensing dye), identification of potentiator compounds. It is filed as cell-based. Particulars: Table 3, compounds of Table 1. An outline of the steps: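 NIH 3T3 fibroblasts stably expressing F508del were cultured at 27° C for 24 hrs for temperature correction, then treated with compounds or DMSO and loaded with a voltage-sensing redistribution dye. Forskolin added with a Cl⁻ gradient activated the channel; membrane-potential fluorescence on FLIPR III reported increased gating.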

T1 sequence (P13569 with tags, fused parts or gaps DEL508-508): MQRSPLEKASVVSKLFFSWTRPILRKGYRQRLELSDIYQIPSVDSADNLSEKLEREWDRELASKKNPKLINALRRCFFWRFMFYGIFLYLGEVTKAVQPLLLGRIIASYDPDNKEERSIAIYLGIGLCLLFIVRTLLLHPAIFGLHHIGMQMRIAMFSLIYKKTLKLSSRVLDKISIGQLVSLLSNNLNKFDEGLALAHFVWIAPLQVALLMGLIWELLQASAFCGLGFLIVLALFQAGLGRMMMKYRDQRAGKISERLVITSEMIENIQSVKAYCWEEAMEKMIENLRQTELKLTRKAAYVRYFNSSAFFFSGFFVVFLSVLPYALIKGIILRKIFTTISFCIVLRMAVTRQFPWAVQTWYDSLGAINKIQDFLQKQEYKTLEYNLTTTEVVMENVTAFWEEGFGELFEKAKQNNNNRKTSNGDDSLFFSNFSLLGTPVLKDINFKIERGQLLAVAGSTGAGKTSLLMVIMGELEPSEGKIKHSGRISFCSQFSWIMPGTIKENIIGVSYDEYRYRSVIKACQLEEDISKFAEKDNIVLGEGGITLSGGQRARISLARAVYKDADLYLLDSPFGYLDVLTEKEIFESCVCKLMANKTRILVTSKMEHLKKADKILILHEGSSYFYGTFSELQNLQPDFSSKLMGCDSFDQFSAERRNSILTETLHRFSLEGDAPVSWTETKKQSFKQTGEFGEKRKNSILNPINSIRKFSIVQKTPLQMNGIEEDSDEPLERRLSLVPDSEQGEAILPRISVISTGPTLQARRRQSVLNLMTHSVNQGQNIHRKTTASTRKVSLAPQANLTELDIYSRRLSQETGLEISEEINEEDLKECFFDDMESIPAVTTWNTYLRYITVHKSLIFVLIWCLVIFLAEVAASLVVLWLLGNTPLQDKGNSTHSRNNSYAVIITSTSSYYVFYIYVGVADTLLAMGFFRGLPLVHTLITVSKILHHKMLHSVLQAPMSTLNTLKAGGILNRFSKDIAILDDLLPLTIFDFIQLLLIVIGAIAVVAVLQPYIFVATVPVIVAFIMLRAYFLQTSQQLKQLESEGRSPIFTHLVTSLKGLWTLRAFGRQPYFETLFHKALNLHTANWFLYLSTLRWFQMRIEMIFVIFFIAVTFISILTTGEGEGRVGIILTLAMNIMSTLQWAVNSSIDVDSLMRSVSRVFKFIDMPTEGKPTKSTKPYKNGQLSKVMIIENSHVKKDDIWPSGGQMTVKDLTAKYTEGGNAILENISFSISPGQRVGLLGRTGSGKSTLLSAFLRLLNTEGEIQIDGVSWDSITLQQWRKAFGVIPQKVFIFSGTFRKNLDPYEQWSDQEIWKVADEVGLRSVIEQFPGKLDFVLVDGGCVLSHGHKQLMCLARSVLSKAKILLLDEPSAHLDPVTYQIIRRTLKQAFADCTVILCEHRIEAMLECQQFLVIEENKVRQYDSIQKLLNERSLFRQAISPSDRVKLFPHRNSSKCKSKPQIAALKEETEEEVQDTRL

For the molecule `Cc1cc(C)c(CN2C[C@H](c3ccccc3)C[C@H]2C(=O)NS(=O)(=O)c2cccc(N)n2)c(C)c1` [Compound 870, (2S,4S)—N-[(6-amino-2-pyridyl)sulfonyl]-4-phenyl-1-[(2,4,6-trimethylphenyl)methyl]pyrrolidine-2-carboxamide], the EC30 entry is “++ (“++” means between 3 uM and 10 uM)”.

In the case of `CCOCCOCCOc1ncc(-c2ccc(C(=O)NS(=O)(=O)c3cccc(N)n3)c(N3C[C@@H](C)CC3(C)C)n2)cc1C` [Compound 1715, N-[(6-amino-2-pyridyl)sulfonyl]-6-[6-[2-(2-ethoxyethoxy)ethoxy]-5-methyl-3-pyridyl]-2-[(4S)-2,2,4-trimethylpyrrolidin-1-yl]pyridine-3-carboxamide], the EC30 result is on record as “+++ (“+++” means <3 uM)”.

For the molecule `CC(C)COc1cc(F)cc(-c2ccc(C(=O)NS(=O)(=O)c3ccn[nH]3)c(N3CCC(C)C(C)(C)C3)n2)c1` (centres unmarked) [Compound 1174, 6-(3-fluoro-5-isobutoxy-phenyl)-N-(1H-pyrazol-5-ylsulfonyl)-2-(3,3,4-trimethyl-1-piperidyl)pyridine-3-carboxamide], the EC30 entry was “+++ (“+++” means <3 uM)”.

Turning to `C[C@@H]1CN(c2nc(C3=CCOCC3)ccc2C(=O)NS(=O)(=O)c2cccc(N)n2)C(C)(C)C1` [Compound 1594, N-[(6-amino-2-pyridyl)sulfonyl]-6-(3,6-dihydro-2H-pyran-4-yl)-2-[(4S)-2,2,4-trimethylpyrrolidin-1-yl]pyridine-3-carboxamide], the EC30 result is “+++ (“+++” means <3 uM)”.

Take `Cc1cc(C)c(Oc2nc(OC(C)C)ccc2C(=O)NS(=O)(=O)c2cccc(N)n2)c(C)c1` [Compound 968, N-[(6-amino-2-pyridyl)sulfonyl]-6-isopropoxy-2-(2,4,6-trimethylphenoxy)pyridine-3-carboxamide]: the EC30 entry is recorded as “+++ (“+++” means <3 uM)”.

In the case of `CC1CN(c2ncccc2C(=O)NS(=O)(=O)c2cccc(OCC3CCCCC3)n2)C(C)(C)C1` (centres unmarked) [Compound 1767, N—[[6-(cyclohexylmethoxy)-2-pyridyl]sulfonyl]-2-(2,2,4-trimethylpyrrolidin-1-yl)pyridine-3-carboxamide], the EC30 entry was “+++ (“+++” means <3 uM)”.

Take `CCC1CC=C(c2ccc(C(=O)NS(=O)(=O)c3cccc(N)n3)c(Oc3c(C)cc(C)cc3C)n2)CC1` (centres unmarked) [Compound 1370, N-[(6-amino-2-pyridyl)sulfonyl]-6-(4-ethylcyclohexen-1-yl)-2-(2,4,6-trimethylphenoxy)pyridine-3-carboxamide]: the EC30 entry is “+++ (“+++” means <3 uM)”.

For the molecule `C[C@@H]1CN(c2nc(C3CC(C)(C)CCC3=O)ccc2C(=O)NS(=O)(=O)c2cccnc2N)C(C)(C)C1` (stereo partly drawn) [Compound 1793, N-[(2-amino-3-pyridyl)sulfonyl]-6-(5,5-dimethyl-2-oxo-cyclohexyl)-2-[(4S)-2,2,4-trimethylpyrrolidin-1-yl]pyridine-3-carboxamide], the EC30 result is “+++ (“+++” means <3 uM)”.

Turning to `CC1CN(c2nc(C(C)(C)C)c(C3=CCN(C)CC3)cc2C(=O)NS(=O)(=O)c2cccc(N)n2)C(C)(C)C1` (centres unmarked) [Compound 1382, N-[(6-amino-2-pyridyl)sulfonyl]-6-tert-butyl-5-(1-methyl-3,6-dihydro-2H-pyridin-4-yl)-2-(2,2,4-trimethylpyrrolidin-1-yl)pyridine-3-carboxamide], the EC30 result is “+ (“+” means greater than 10 uM)”.

With `CC(C)COc1cc(F)cc(-c2ccc(C(=O)NS(=O)(=O)c3cccc(N)n3)c(N3CC(C)CCC3(C)C)n2)c1` (centres unmarked) [Compound 1995, N-[(6-amino-2-pyridyl)sulfonyl]-6-(3-fluoro-5-isobutoxy-phenyl)-2-(2,2,5-trimethyl-1-piperidyl)pyridine-3-carboxamide], the EC30 entry was “+++ (“+++” means <3 uM)”.

Turning to `CC1CN(c2ncccc2C(=O)NS(=O)(=O)c2cccc(OCc3ccccc3F)n2)C(C)(C)C1` (centres unmarked) [Compound 1798, N—[[6-[(2-fluorophenyl)methoxy]-2-pyridyl]sulfonyl]-2-(2,2,4-trimethylpyrrolidin-1-yl)pyridine-3-carboxamide], the EC30 entry was “+++ (“+++” means <3 uM)”.

Regarding `Cc1cc(C)c(Oc2nc(C)ccc2C(=O)NS(=O)(=O)c2cccc(N)n2)c(C)c1` [Compound 1137, N-[(6-amino-2-pyridyl)sulfonyl]-6-methyl-2-(2,4,6-trimethylphenoxy)pyridine-3-carboxamide], the EC30 entry was “++ (“++” means between 3 uM and 10 uM)”.

For `COc1cc(F)cc(-c2ccc(C(=O)NS(=O)(=O)c3cccnc3N)c(N3C[C@@H](C)CC3(C)C)n2)c1` [Compound 1869, N-[(2-amino-3-pyridyl)sulfonyl]-6-(3-fluoro-5-methoxy-phenyl)-2-[(4S)-2,2,4-trimethylpyrrolidin-1-yl]pyridine-3-carboxamide], the EC30 result was “+++ (“+++” means <3 uM)”.

In the case of `CC(C)COc1cc(F)cc(-c2ccc(C(=O)NS(=O)(=O)c3cccc(N)n3)c(N3CCCC3c3ccccc3)n2)c1` (centres unmarked) [Compound 859, N-[(6-amino-2-pyridyl)sulfonyl]-6-(3-fluoro-5-isobutoxy-phenyl)-2-(2-phenylpyrrolidin-1-yl)pyridine-3-carboxamide], the EC30 entry is “+++ (“+++” means <3 uM)”.

As for `COC1CCCCC1Oc1nc(-c2cc(F)cc(OCC(C)C)c2)ccc1C(=O)NS(=O)(=O)c1cccc(N)n1` (centres unmarked) [Compound 1622, N-[(6-amino-2-pyridyl)sulfonyl]-6-(3-fluoro-5-isobutoxy-phenyl)-2-(2-methoxycyclohexoxy)pyridine-3-carboxamide], the EC30 entry is recorded as “+++ (“+++” means <3 uM)”.

Turning to `CCOC(=O)C1CC=C(c2ccc(C(=O)NS(=O)(=O)c3cccc(N)n3)c(Oc3c(C)cc(C)cc3C)n2)CC1` (centres unmarked) [Compound 1432, ethyl 4-[5-[(6-amino-2-pyridyl)sulfonylcarbamoyl]-6-(2,4,6-trimethylphenoxy)-2-pyridyl]cyclohex-3-ene-1-carboxylate], the EC30 result is given as “+++ (“+++” means <3 uM)”.

Take `COc1cc(OC)cc(-c2ccc(C(=O)NS(=O)(=O)c3cccnc3N)c(N3C[C@@H](C)CC3(C)C)n2)c1` [Compound 1825, N-[(2-amino-3-pyridyl)sulfonyl]-6-(3,5-dimethoxyphenyl)-2-[(4S)-2,2,4-trimethylpyrrolidin-1-yl]pyridine-3-carboxamide]: the EC30 entry is given as “+++ (“+++” means <3 uM)”.

`CC(C)c1cccc(-c2ccc(C(=O)NS(=O)(=O)c3cccnc3N)c(N3C[C@@H](C)CC3(C)C)n2)c1` [Compound 1991, N-[(2-amino-3-pyridyl)sulfonyl]-6-(3-isopropylphenyl)-2-[(4S)-2,2,4-trimethylpyrrolidin-1-yl]pyridine-3-carboxamide]: the EC30 entry was “+++ (“+++” means <3 uM)”.

For `CC(C)Oc1cc(-c2ccc(C(=O)NS(=O)(=O)c3ccc[nH]c3=O)c(N3[C@H](C)CC[C@@H]3C)n2)ccc1Cl` [Compound 1001, 6-(4-chloro-3-isopropoxy-phenyl)-2-[(2S,5R)-2,5-dimethylpyrrolidin-1-yl]-N-[(2-oxo-1H-pyridin-3-yl)sulfonyl]pyridine-3-carboxamide], the EC30 result was “++ (“++” means between 3 uM and 10 uM)”.

Regarding `CC(C)COc1cc(F)cc(-c2ccc(C(=O)NS(=O)(=O)c3cccc(N)n3)c(O[C@@H]3CCOC3)n2)c1` [Compound 1592, N-[(6-amino-2-pyridyl)sulfonyl]-6-(3-fluoro-5-isobutoxy-phenyl)-2-[(3R)-tetrahydrofuran-3-yl]oxy-pyridine-3-carboxamide], the EC30 entry is given as “+++ (“+++” means <3 uM)”.
